Assay results from the NIST ThermoML archive (doi:10.1021/je500431h).

Assay: xn = mol fraction of the nth substance listed
Settings: 101 kPa, Liquid; for mass density: Pycnometric method; for electrical conductivity: conductivity meter LF 340 and a standard conductivity cell TetraCon

C=CCn1cc[n+](CCOC)c1.O=S(=O)([N-]S(=O)(=O)C(F)(F)F)C(F)(F)F + O=S(=O)([N-]S(=O)(=O)C(F)(F)F)C(F)(F)F.[Li+]
Settings	electrical conductivity [S/m]	mass density [kg/m3]	viscosity [mPa·s]
308 K, x2 = 0.176	–	1480.1	56.2
308 K, x2 = 0.2508	–	1505.3	72.2
308 K, x2 = 0.3254	–	1525.3	116.4
308.2 K, x2 = 0.176	0.3	–	–
308.2 K, x2 = 0.4001	0.0856	–	–
308.7 K, x2 = 0	0.546	–	–
308.7 K, x2 = 0.2508	0.228	–	–
308.8 K, x2 = 0.3254	0.16	–	–
308.9 K, x2 = 0.1007	0.425	–	–
309 K, x2 = 0	–	1437	23.7
309 K, x2 = 0.1007	–	1459.7	38
309.2 K, x2 = 0.4001	–	–	221.6
309.24 K, x2 = 0.4001	–	1551.1	–
313 K, x2 = 0.176	–	1475.4	44.4
313 K, x2 = 0.2508	–	1500.4	57.1
313 K, x2 = 0.3254	–	1520.3	89.4
313.3 K, x2 = 0	0.627	–	–
313.4 K, x2 = 0.4001	0.113	–	–
313.5 K, x2 = 0.3254	0.2	–	–
313.9 K, x2 = 0.176	0.372	–	–
314 K, x2 = 0	–	1432.3	20.3
314 K, x2 = 0.4001	–	1546.3	168.3
314.4 K, x2 = 0.1007	0.514	–	–
314.4 K, x2 = 0.2508	0.284	–	–
315 K, x2 = 0.1007	–	1453.9	27.9
317 K, x2 = 0	–	1429.6	17.8
317 K, x2 = 0.2508	–	1496.4	47.8
317 K, x2 = 0.3254	–	1516.3	75.1
317.9 K, x2 = 0.2508	0.327	–	–
318 K, x2 = 0.176	–	1470.7	35.8
318 K, x2 = 0.4001	–	1542.3	138.5
318.1 K, x2 = 0	0.72	–	–
318.1 K, x2 = 0.4001	0.141	–	–
319 K, x2 = 0.3254	0.248	–	–
319.2 K, x2 = 0.1007	0.596	–	–
319.5 K, x2 = 0.1007	–	1449.6	22.8
319.6 K, x2 = 0.176	0.453	–	–
322.4 K, x2 = 0.176	0.493	–	–
323 K, x2 = 0.176	–	1466	29.6
323 K, x2 = 0.3254	–	1510.4	56.8
323.3 K, x2 = 0	0.828	–	–
323.5 K, x2 = 0	–	1423.5	14.6
323.9 K, x2 = 0.3254	0.3	–	–
324 K, x2 = 0.2508	–	1489.5	37.4
324 K, x2 = 0.4001	–	1536.2	100.9
324.1 K, x2 = 0.4001	0.183	–	–
324.4 K, x2 = 0.1007	0.694	–	–
324.6 K, x2 = 0.2508	0.41	–	–
325.2 K, x2 = 0.1007	–	1444.2	19.6
327 K, x2 = 0.3254	–	1506.5	49
327.2 K, x2 = 0.1007	–	1442.3	17.7
327.2 K, x2 = 0.176	–	1462	25.4
327.5 K, x2 = 0.4001	0.214	–	–
327.9 K, x2 = 0	0.935	–	–
328 K, x2 = 0	–	1419.4	13.1
328 K, x2 = 0.2508	–	1485.6	32.3
328 K, x2 = 0.4001	–	1532.2	82.1
328.5 K, x2 = 0.2508	0.467	–	–
328.7 K, x2 = 0.176	0.588	–	–
328.8 K, x2 = 0.3254	0.353	–	–
328.9 K, x2 = 0.1007	0.778	–	–
332.9 K, x2 = 0	1.06	–	–
333.1 K, x2 = 0.3254	0.405	–	–
333.4 K, x2 = 0.2508	0.535	–	–
334 K, x2 = 0	–	1413.9	11.2
334 K, x2 = 0.1007	0.885	–	–
334 K, x2 = 0.176	–	1455.7	20.4
334 K, x2 = 0.2508	–	1479.8	25.9
334 K, x2 = 0.3254	–	1499.7	37.1
334 K, x2 = 0.4001	–	1526.3	63.2
334.2 K, x2 = 0.1007	–	1435.7	15.3
334.3 K, x2 = 0.4001	0.275	–	–
334.5 K, x2 = 0.176	0.691	–	–
337 K, x2 = 0.3254	–	1496.9	32
337.4 K, x2 = 0.2508	0.6	–	–
337.6 K, x2 = 0	1.18	–	–
338 K, x2 = 0.176	–	1452.1	18.2
338 K, x2 = 0.2508	–	1475.9	22.9
338.1 K, x2 = 0.1007	–	1432	12.9
338.5 K, x2 = 0	–	1409.9	10
338.5 K, x2 = 0.3254	0.474	–	–
338.9 K, x2 = 0.176	0.76	–	–
339 K, x2 = 0.1007	0.986	–	–
339 K, x2 = 0.4001	–	1521.4	54.2
339.3 K, x2 = 0.4001	0.323	–	–
343 K, x2 = 0	1.33	–	–
343 K, x2 = 0.3254	–	1491.1	27.3
343.2 K, x2 = 0.1007	–	1427.3	11.4
343.3 K, x2 = 0.3254	0.539	–	–
343.5 K, x2 = 0.2508	0.698	–	–
343.8 K, x2 = 0.176	0.858	–	–
344 K, x2 = 0	–	1404.9	8.8
344 K, x2 = 0.176	–	1446.6	15.4
344 K, x2 = 0.4001	–	1516.5	44.8
344.4 K, x2 = 0.4001	0.385	–	–
344.5 K, x2 = 0.1007	1.11	–	–
345 K, x2 = 0.2508	–	1469.2	19.2
347 K, x2 = 0.3254	–	1487.3	24
348 K, x2 = 0	–	1401.3	8.2
348.1 K, x2 = 0	1.48	–	–
348.2 K, x2 = 0.2508	0.784	–	–
348.3 K, x2 = 0.1007	1.19	–	–
348.5 K, x2 = 0.3254	0.62	–	–
348.6 K, x2 = 0.176	0.954	–	–
348.7 K, x2 = 0.4001	0.436	–	–
349 K, x2 = 0.1007	–	1421.9	10.3
349 K, x2 = 0.176	–	1442	13.7
349 K, x2 = 0.2508	–	1465.4	17.1
349 K, x2 = 0.4001	–	1511.6	38
352 K, x2 = 0	1.6	–	–
352.5 K, x2 = 0.2508	0.858	–	–
353.3 K, x2 = 0.3254	0.694	–	–
353.5 K, x2 = 0.4001	0.498	–	–
354.2 K, x2 = 0	–	1395.8	7
354.5 K, x2 = 0.1007	–	1416.9	9.5
354.9 K, x2 = 0.1007	1.35	–	–
354.9 K, x2 = 0.176	1.09	–	–
355 K, x2 = 0.176	–	1436.6	11.9
355 K, x2 = 0.2508	–	1459.8	14.6
355 K, x2 = 0.4001	–	1505.8	31.7
356 K, x2 = 0.3254	–	1478.8	18.9
